Results as given in ChEMBL document CHEMBL1921677, “Ungeremine effectively targets mammalian as well as bacterial type I and type II topoisomerases” (Bioorg Med Chem Lett, 2011).
Converted amounts (≈) assume the structure as drawn. The source made the active and inactive calls. No cut-off for these calls is given here.

What was measured:
[1] = target: T1, DNA topoisomerase 2-alpha (Homo sapiens, UniProt P11388); assay: Inhibition of human topoisomerase 2alpha-mediated relaxation of supercoiled pBR322 DNA
T1 sequence (P11388 whole entry): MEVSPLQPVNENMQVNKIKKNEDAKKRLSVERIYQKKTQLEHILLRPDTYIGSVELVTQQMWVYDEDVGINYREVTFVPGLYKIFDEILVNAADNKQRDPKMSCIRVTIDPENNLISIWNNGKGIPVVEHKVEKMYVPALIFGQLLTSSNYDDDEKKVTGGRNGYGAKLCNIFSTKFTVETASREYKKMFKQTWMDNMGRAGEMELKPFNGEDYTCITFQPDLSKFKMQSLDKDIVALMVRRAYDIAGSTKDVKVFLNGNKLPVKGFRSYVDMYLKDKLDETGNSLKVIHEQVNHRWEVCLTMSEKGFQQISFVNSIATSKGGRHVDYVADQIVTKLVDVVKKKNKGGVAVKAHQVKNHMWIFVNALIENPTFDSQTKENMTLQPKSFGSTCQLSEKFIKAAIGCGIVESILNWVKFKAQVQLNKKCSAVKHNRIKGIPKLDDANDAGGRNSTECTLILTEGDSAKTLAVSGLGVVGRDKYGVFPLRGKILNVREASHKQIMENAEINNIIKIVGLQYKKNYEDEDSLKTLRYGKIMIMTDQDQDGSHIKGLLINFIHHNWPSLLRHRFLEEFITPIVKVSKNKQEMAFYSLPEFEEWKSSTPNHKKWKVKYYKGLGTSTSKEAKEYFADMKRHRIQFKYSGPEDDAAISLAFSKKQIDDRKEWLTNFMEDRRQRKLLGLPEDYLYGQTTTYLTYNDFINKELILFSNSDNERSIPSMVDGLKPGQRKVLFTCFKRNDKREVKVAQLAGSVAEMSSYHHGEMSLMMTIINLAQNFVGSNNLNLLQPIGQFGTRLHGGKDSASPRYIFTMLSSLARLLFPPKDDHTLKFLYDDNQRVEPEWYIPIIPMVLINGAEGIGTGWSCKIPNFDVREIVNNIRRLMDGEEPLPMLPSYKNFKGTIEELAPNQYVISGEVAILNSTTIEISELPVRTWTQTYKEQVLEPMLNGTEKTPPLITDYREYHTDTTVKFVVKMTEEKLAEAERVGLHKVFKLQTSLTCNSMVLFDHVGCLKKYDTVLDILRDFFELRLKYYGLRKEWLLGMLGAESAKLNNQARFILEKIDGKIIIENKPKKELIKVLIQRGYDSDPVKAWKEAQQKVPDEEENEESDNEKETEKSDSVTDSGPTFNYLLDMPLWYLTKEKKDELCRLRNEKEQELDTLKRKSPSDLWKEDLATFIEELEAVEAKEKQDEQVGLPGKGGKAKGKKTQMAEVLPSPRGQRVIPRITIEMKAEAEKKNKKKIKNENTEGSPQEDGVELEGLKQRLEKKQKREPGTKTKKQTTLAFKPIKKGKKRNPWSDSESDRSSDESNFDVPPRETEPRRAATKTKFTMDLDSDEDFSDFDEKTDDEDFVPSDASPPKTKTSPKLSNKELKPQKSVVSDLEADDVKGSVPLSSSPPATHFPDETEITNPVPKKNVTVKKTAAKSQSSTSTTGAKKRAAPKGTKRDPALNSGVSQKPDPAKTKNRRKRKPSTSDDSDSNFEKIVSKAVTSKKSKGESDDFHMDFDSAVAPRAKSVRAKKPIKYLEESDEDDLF

Nucleic Acid = assay: Binding affinity to calf thymus DNA assessed as change in absorption spectra at increasing concentration at pH 8 by UV-Vis spectra analysis; type: nucleic-acid assay; details: Bos taurus
[2] = target: T2, DNA topoisomerase 1 (Homo sapiens) (UniProt P11387); assay: (§1) Inhibition of human topoisomerase 1-mediated relaxation of supercoiled pBR322 DNA
T2 sequence (whole entry): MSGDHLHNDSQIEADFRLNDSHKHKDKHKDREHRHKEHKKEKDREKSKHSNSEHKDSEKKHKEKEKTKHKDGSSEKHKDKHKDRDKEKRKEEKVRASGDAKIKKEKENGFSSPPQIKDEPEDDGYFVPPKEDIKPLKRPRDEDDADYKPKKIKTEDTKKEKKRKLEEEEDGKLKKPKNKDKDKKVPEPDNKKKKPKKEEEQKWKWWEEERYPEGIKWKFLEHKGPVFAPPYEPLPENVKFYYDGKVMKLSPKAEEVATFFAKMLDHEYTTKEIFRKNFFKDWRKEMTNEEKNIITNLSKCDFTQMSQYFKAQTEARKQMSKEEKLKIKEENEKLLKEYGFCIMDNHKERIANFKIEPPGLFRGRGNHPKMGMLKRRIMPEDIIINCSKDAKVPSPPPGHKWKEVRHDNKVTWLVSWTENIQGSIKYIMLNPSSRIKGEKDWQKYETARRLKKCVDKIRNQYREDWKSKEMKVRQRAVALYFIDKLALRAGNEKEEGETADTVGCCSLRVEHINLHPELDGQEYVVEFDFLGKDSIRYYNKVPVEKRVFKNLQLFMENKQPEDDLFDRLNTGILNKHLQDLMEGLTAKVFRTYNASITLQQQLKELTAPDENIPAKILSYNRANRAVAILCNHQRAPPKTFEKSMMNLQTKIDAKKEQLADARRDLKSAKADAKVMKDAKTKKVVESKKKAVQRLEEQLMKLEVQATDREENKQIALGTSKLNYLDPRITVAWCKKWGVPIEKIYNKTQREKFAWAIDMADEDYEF

DNA topoisomerase 1 = target: T3, DNA topoisomerase 1 (Homo sapiens, UniProt P11387); assay: as §1
T3 sequence (P11387 whole entry): T2 sequence (whole entry)

Escherichia coli [3] = assay: Inhibition of Escherichia coli topoisomerase 4 kinetoplast DNA decatenation activity assessed as formation of monomeric circle from DNA at pH 8 after 1 hr
Escherichia coli [4] = assay: Stabilization of Escherichia coli DNA topoisomerase 1-DNA cleavage complex assessed as cleavage enhancement using 32P-TAACCCTGAAAGATTATGCAATGCGCTTTGGG ssDNA as substrate at 10 to 200 uM at pH 8 after 20 mins by agarose gel electrophoresis relative to control
[5] = Inhibition of Escherichia coli DNA topoisomerase 1-mediated relaxation of supercoiled pBR322 DNA
MCF7 = assay: Cytotoxicity against human MCF7 cells after 72 hrs by MTT assay; type: functional, cell-based; details: MCF7, 72 h
[6] = Inhibition of Escherichia coli DNA topoisomerase 4-mediated relaxation of supercoiled pBR322 DNA
[7] = tested on: Staphylococcus epidermidis; assay: Antibacterial activity against Staphylococcus epidermidis by agar dilution method; type: functional
[8] = target: T1, DNA topoisomerase 2-alpha; assay: Inhibition of human topoisomerase 2alpha kinetoplast DNA decatenation activity assessed as formation of monomeric circle from DNA at pH 8 after 1 hr
Salmonella typhi = assay: Antibacterial activity against Salmonella typhi by agar dilution method; type: functional, Salmonella enterica subsp. enterica serovar Typhi; details: Salmonella enterica
HL-60 = assay: Cytotoxicity against human HL60 cells after 72 hrs by MTT assay; type: functional, cell-based; details: HL-60, 72 h

Compound	inhibition [1]	Activity (Nucleic Acid)	inhibition [2]	IC50 [1] [µM]	IC50 (DNA topoisomerase 1) [µM]	inhibition (Escherichia coli [3])	fold change (FC) (Escherichia coli [4])	IC50 [5] [µM]	IC50 (MCF7) [µM]	IC50 [6] [µM]	MIC [7] [µg/mL]	inhibition [8]	MIC (Salmonella typhi) [µg/mL]	IC50 (HL-60) [µM]
O[C@H]1[C@H]2c3cc4c(cc3CN3CCC(=C[C@@H]1O)[C@H]23)OCO4	inactive	inactive	inactive	–	–	–	–	–	–	–	–	–	–	–
[O-]c1cc2c3c(c1)c1cc4c(cc1c[n+]3CC2)OCO4 [UNGEREMINE]	–	Active	–	25.8	6.1	inactive	250	15	> 40	7.3	31.2 (≈ 118 µM)	Active	125 (≈ 471 µM)	1.4
O[C@@H]1C=C[C@]23CCN(Cc4cc5c(cc42)OCO5)[C@H]3C1	inactive	inactive	inactive	–	–	–	–	–	–	–	–	–	–	–
